In PubChem BioAssay (NCI) one finds GI50 and TGI data, which are given here for 9 compounds.

“And” between values parts separate entries of the source, which are not always exact repeats. Equal values may be shown once.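 These data come from cells grown in 96-well plates and exposed to compound for 48 hours at five concentrations. Abbreviation: GI50, concentration required for 50% inhibition of growth. TGI marks complete inhibition of growth.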

Among the test systems are SNB-75 CNS; PC-3 prostate; SN12C renal; SK-MEL-2 melanoma; 786-0 renal; M14 melanoma; MCF7 breast; TK-10 renal; SK-MEL-28 melanoma; SR leukemia.
Test in all cases: growth of human tumour cells (NCI), 48 h

Regarding `COc1cc2c(cc1OCCCCCOc1ccc(-c3nc4ccccc4s3)cc1)N=C[C@@H]1CCCN1C2=O`, the GI50 in the assay on SNB-75 CNS is 6.57 µM; in the assay on PC-3 prostate it was 1.14 µM; with SN12C renal, 2.95 µM; in the assay on SK-MEL-2 melanoma it was 4.86 µM; with 786-0 renal, 1.2 µM; in the assay on M14 melanoma, 1.46 µM. The GI50 is 1.21 µM in the assay on MCF7 breast, 8.48 µM with TK-10 renal, 8.74 µM with SK-MEL-28 melanoma and 0.222 µM in the assay on SR leukemia. Besides, the TGI came out at 59.8 µM in the assay on SNB-75 CNS; 7.04 µM in the assay on PC-3 prostate; 18.9 µM in the assay on SN12C renal; 16.2 µM in the assay with SK-MEL-2 melanoma; 3.63 µM in the assay on 786-0 renal; 9.08 µM in the assay on M14 melanoma. Also, the TGI is 9.77 µM with MCF7 breast, over 57.7 µM in the assay on TK-10 renal, 31.7 µM with SK-MEL-28 melanoma and 1.43 µM in the assay on SR leukemia.

As for `CC(C)CC(NC(=O)C(O)C(N)Cc1ccccc1)C(=O)O` (stereo not drawn), the TGI in the assay on SNB-75 CNS, in the assay with PC-3 prostate, in the assay on SN12C renal, in the assay on SK-MEL-2 melanoma, in the assay on 786-0 renal and with M14 melanoma was over 100 µM throughout. Further, the TGI with MCF7 breast, in the assay on TK-10 renal, in the assay with SK-MEL-28 melanoma and with SR leukemia was over 100 µM in each case.

As to `CN(C)CCN1C(=O)c2cccc3cc(N)cc(c23)C1=O`, the GI50 was 3.81 µM in the assay with SNB-75 CNS; 4.07 µM with PC-3 prostate; 2.83 µM with SN12C renal; 3.73 µM in the assay on SK-MEL-2 melanoma; 4.16 µM in the assay with 786-0 renal; 1.38 µM in the assay with MCF7 breast. Also, the GI50 in the assay on TK-10 renal is 3.27 µM; with SR leukemia it was 3.38 µM and 0.824 µM. Moreover, the TGI is 17 µM and 16.7 µM in the assay with SNB-75 CNS; 42.8 µM and 8.73 µM with PC-3 prostate; > 56.9 µM and 16.3 µM in the assay on SN12C renal; 13 µM and 9.4 µM with SK-MEL-2 melanoma; > 81.6 µM and 23 µM with 786-0 renal; 16.7 µM and 8.69 µM in the assay with M14 melanoma. In addition, the TGI was 22.2 µM and 18.5 µM in the assay with MCF7 breast; 24.9 µM and 14.4 µM in the assay with TK-10 renal; 27.8 µM and 19.6 µM with SK-MEL-28 melanoma; > 40.8 µM and 11 µM with SR leukemia.

On to `CCCCCOC(=O)c1c(C)[nH]c(/C=C2\N=C(c3ccc[nH]3)C=C2OC)c1C`, for which the GI50 in the assay with SNB-75 CNS is 0.0429 µM; with PC-3 prostate, 0.0212 µM; in the assay on SN12C renal, 0.0482 µM; with SK-MEL-2 melanoma, 0.0222 µM; in the assay on 786-0 renal, 0.0468 µM; in the assay on M14 melanoma, 0.0204 µM. In addition, the GI50 is 0.0451 µM with MCF7 breast, 0.047 µM in the assay on TK-10 renal, 0.129 µM with SK-MEL-28 melanoma and under 0.0107 µM in the assay on SR leukemia. Moreover, the TGI is 0.619 µM in the assay on SNB-75 CNS; 3.27 µM in the assay with PC-3 prostate; 1.73 µM in the assay on SN12C renal; 0.0681 µM in the assay with SK-MEL-2 melanoma; 0.397 µM in the assay with 786-0 renal; 0.0481 µM in the assay with M14 melanoma. In addition, the TGI in the assay with MCF7 breast is 1.14 µM; in the assay with TK-10 renal it was 1.72 µM; with SK-MEL-28 melanoma, 1.25 µM; in the assay with SR leukemia it was 0.0403 µM.

As for `O=C(O)c1c2c(c(O)c3c1CN(C1CCCCC1)CO3)OCN(C1CCCCC1)C2`, the TGI in the assay on SNB-75 CNS is over 100 µM; in the assay with PC-3 prostate, over 100 µM; in the assay on SN12C renal, 72.9 µM; in the assay with SK-MEL-2 melanoma it was over 100 µM; with 786-0 renal, over 100 µM; in the assay on M14 melanoma, over 100 µM. For the same compound, the TGI with MCF7 breast is 39.2 µM; in the assay on TK-10 renal, over 100 µM; in the assay with SK-MEL-28 melanoma, over 100 µM; in the assay on SR leukemia it was 73 µM.

With `CCOc1ccc2nc3cc(N)ccc3c(N)c2c1`, the GI50 in the assay on SNB-75 CNS was 2.86 µM and 14.1 µM; in the assay with PC-3 prostate, 3.85 µM and 2.99 µM; in the assay on SN12C renal, 0.661 µM and 0.298 µM; in the assay on SK-MEL-2 melanoma, 2.36 µM and 2.22 µM; with 786-0 renal, 2.12 µM and 2.37 µM; in the assay with M14 melanoma, 8.31 µM and 10.7 µM. Moreover, the GI50 is 2.05 µM and 1.66 µM in the assay with MCF7 breast; 20.9 µM and 12.7 µM with TK-10 renal; 4.4 µM and 4.3 µM in the assay with SK-MEL-28 melanoma; 2.61 µM and 2.8 µM with SR leukemia. Moreover, the TGI with SNB-75 CNS was 8.78 µM and 28.4 µM; with PC-3 prostate, 16.1 µM and 12.7 µM; in the assay on SN12C renal, 6.45 µM and 2.1 µM; in the assay on SK-MEL-2 melanoma, 6.19 µM and 5.86 µM; in the assay with 786-0 renal, 10.8 µM and 13.1 µM; in the assay on M14 melanoma, 26.3 µM and 23.4 µM. In addition, the TGI in the assay with MCF7 breast was 7.75 µM and 5.5 µM; with TK-10 renal it was 46.8 µM and 34.8 µM; in the assay with SK-MEL-28 melanoma, 15.7 µM and 15.9 µM; in the assay on SR leukemia, 8.36 µM and 8.48 µM.

Regarding `CCN(Cc1ccccc1)c1ccc(/C=C2\COc3ccccc3C2=O)cc1`, the GI50 in the assay with SNB-75 CNS was over 1000 µM; in the assay with PC-3 prostate, 343 µM; in the assay with SN12C renal, over 1000 µM; in the assay on SK-MEL-2 melanoma, over 1000 µM; in the assay with 786-0 renal, over 1000 µM; in the assay on M14 melanoma, 330 µM. In addition, the GI50 in the assay on MCF7 breast was 69.4 µM; in the assay with TK-10 renal it was over 1000 µM; with SK-MEL-28 melanoma, over 1000 µM; with SR leukemia, 54 µM. The TGI in the assay with SNB-75 CNS, with PC-3 prostate, in the assay on SN12C renal, with SK-MEL-2 melanoma, in the assay with 786-0 renal and in the assay on M14 melanoma was over 1000 µM in each case. In addition, the TGI with MCF7 breast, in the assay with TK-10 renal, in the assay with SK-MEL-28 melanoma and with SR leukemia was over 1000 µM in each case.

For `O=C(Nc1ccc(Nc2ccc3c(c2)C(=O)c2ccccc2C3=O)c2c1C(=O)c1ccccc1C2=O)c1ccccc1`, the TGI was 58.1 µM in the assay on SNB-75 CNS; over 100 µM in the assay on PC-3 prostate; over 100 µM in the assay on SN12C renal; over 30.5 µM in the assay with SK-MEL-2 melanoma; over 100 µM in the assay with 786-0 renal; over 100 µM in the assay with M14 melanoma. The TGI in the assay with MCF7 breast is over 100 µM; in the assay with TK-10 renal, over 100 µM; in the assay with SK-MEL-28 melanoma, over 100 µM; with SR leukemia, 17.1 µM.

Take `C=CC(=O)N1CCN([C@@H](CC2CC2)c2ccc([C@H](C)Nc3ncc4c(n3)N(CC)C(=O)OC4)cc2)CC1`: the GI50 in the assay with SNB-75 CNS is 2.06 µM; with PC-3 prostate it was 12 µM; in the assay on SN12C renal, 13.7 µM; with SK-MEL-2 melanoma, 12.6 µM; in the assay with 786-0 renal it was 11.2 µM; in the assay on M14 melanoma, 15.5 µM. Also, the GI50 in the assay with MCF7 breast was 6.66 µM; with TK-10 renal, 9.02 µM; with SK-MEL-28 melanoma it was 16.6 µM; in the assay on SR leukemia, 4.05 µM. The TGI in the assay with SNB-75 CNS worked out at 16.7 µM; in the assay on PC-3 prostate it was 31.4 µM; with SN12C renal it was 31.8 µM; in the assay with SK-MEL-2 melanoma it was 27.4 µM; in the assay with 786-0 renal, 25.7 µM; in the assay with M14 melanoma, 30.1 µM. Also, the TGI was determined as 24.6 µM in the assay on MCF7 breast, 23.1 µM in the assay on TK-10 renal, 30.5 µM in the assay on SK-MEL-28 melanoma and 22.7 µM in the assay on SR leukemia.
